Experiments:
[1] = system: secretion of bile; assay: Activity on the secretion of bile, intraduodenal administration; format: in vivo, Male Wister rats; details: 5 hours
Description: A. Intraduodenal administration
Male Wister rats weighing 200 to 250 g were used, ten rats in each group. Each rat was fasted for 6 to 8 hours, and was thereafter fastened as laid on its back to a fixed table under ethereal anesthesia. The abdomen was cut open along the midline. A polyethylene tube was inserted into and attached to the common bile duct. The rat was then allowed to stand for a period of time (1 hour) to assure stabilized flow of bile. The amount of bile flowing out for the following period of 30 minutes was taken as 100 to serve as a control amount for the subsequent flow of bile.
Next, the drug to be tested was intraduodenally administered to the rat, and the amount of bile flowing out from the polyethylene tube dropwise was measured over a period of 5 hours. The amount was measured for every 30-minute period of the first 2 hours after the administration of the drug and then for every one-hour period. Sodium dehydrocholate, bile acid preparation serving as a known cholagogue, was used as a control drug.
The dose was 200 mg/kg (weight of rat) for bornyl glucoside, or 100 mg (drug)/kg (weight of rat) for other borneols and sodium dehydrocholate. The drugs were used as suspended in 4% aqueous solution of gum arabic. Experimental results

[2] = system: bile acid contents of bile; assay: Variations in bile acid contents of bile (high-speed liquid chromatography); format: in vivo, rats; details: intraduodenal, 100 mg/kg, first one-hour period, pre-administration 30 minutes = 100
From the text: C. Variations in bile acid contents of bile
Each portion of bile obtained during the first one-hour period of measurement in the foregoing bile secretion experiment (1)-A by intraduodenal administration was partly collected, then diluted 40-fold with freshly distilled methanol and thereafter filtered with use of a 0.45-micron membrane filter (product of Toyo Roshi). The filtrate was subjected to high-speed liquid chromatography according to the method of Okuyama S. et al., Chemistry Letters, p 1443 (1979). The bile acid contents of the bile flowing out during each measurement period were determined with reference to calibration curves prepared in advance for cholic acid, ursodeoxycholic acid, chenodeoxycholic acid and deoxycholic acid, and also for glycine conjugates and taurine conjugates of these acids. The total bile acid content was determined from the results. The bile acid contents and the total bile acid content of the bile flowing out during the period of 30 minutes before the administration of the test drug were taken as 100.

[3] = system: solids weight of bile; assay: Variations in the weight of solids in discharged bile; format: in vivo, rats; details: intraduodenal, 100 mg/kg, 5 hours, pre-administration 30 minutes = 100
Description: A. Variations in the weight of solids in discharged bile
The bile portions obtained from the bile secretion experiment (1)-A by intraduodenal administration were collected respectively for the observation periods. A quantity of each bile portion was freeze-dried, and the solids weight was measured to determine the variations in the solids weight of bile over the 5-hour period. The solids weight of bile obtained during the 30-minute period before the administration of the test drug, e.g. (+)-borneol, was calculated as 100.

[4] = system: secretion of bile; assay: Activity on the secretion of bile, oral administration; format: in vivo, rats; details: 5 hours
Description: B. Oral Administration As in the case of intraduodenal administration, the drug to be tested was orally administered to rats each having a polyethylene tube attached to the common bile duct, and the amount of bile flowing out was observed over a period of 5 hours.

[5] = Acute toxicity test; set-up: species or system male dd-Y mice; details: mouse, in vivo; oral, mice, 7 days, Litchfield-Wilcoxon method, 95% reliability limit
Description: The drug to be tested was orally given to male dd-Y mice weighing about 20 g, ten mice in each group. The mice were thereafter observed for 7 days to determine the LD50 from the number of resulting deaths. During the 7-day observation period, the animals were allowed free access to diets and water. The LD50 was determined according to the Litchfield-Wilcoxon method.

[6] = system: cholesterol content of bile; assay: Variations in the cholesterol content of bile (Cholesterol CII-Test Wako); format: in vivo, rats; details: intraduodenal, 100 mg/kg, first one-hour period, pre-administration 30 minutes = 100
Description: (§1) B. Variations in the phospholipid and cholesterol contents of bile
(§2) Portions of the bile obtained during the first one-hour period of measurement in the bile secretion experiment (1)-A by intraduodenal administration were tested for phospholipid using Phospholipid B-Test Wako (enzyme method, Wako Pure Chemical Industries Ltd.) and for cholesterol using Cholesterol CII-Test Wako measuring kit(COD-p-chlorophenol color development method, Wako Pure Chemical Industries Ltd.). For the quantitative determination of phospholipid and cholesterol, a blank test was conducted, and a calibration curve prepared in advanced was used. The phospholipid and cholesterol contents of the bile flowing out during the period of 30 minutes before the administration of the test drug were taken as 100.

[7] = system: phospholipid content of bile; assay: Variations in the phospholipid content of bile (Phospholipid B-Test Wako); format: in vivo, rats; details: intraduodenal, 100 mg/kg, first one-hour period, pre-administration 30 minutes = 100
Description: as §1, §2

[8] = naturally occurring, used in oriental medicine as "Ryuno"; cited from earlier work

## CC1(C)[C@@H]2CC[C@@]1(C)[C@@H](O)C2 (relative stereo) [(±)-borneol]
[1]; 100 mg/kg
  cholagogic effect (amount of bile flowing out): also had a cholagogic effect

## CC1(C)[C@@H]2CC[C@@]1(C)[C@H](O)C2 (relative stereo) [isoborneol]
[1]; 100 mg/kg
  cholagogic effect (amount of bile flowing out): also had a cholagogic effect

## CC1(C)[C@@H]2CC[C@@]1(C)[C@@H](O)C2 [(+)-borneol]
[2]
  bile acid contents of bile: secretion of remarkably increased amounts of chenodeoxylic acid and like bile acids
  total bile acid content of bile: remarkable increase in the total bile acid content
[3]
  variations in the solids weight of bile: sustained effect to increase the amount of biliary constituents
[4]
  cholagogic effect (amount of bile flowing out): more sustained greater cholagogic effect than the control drug
[5]
  LD50 at 168 h: ≥ 10000 mg/kg
[6]
  cholesterol content of bile: approximately at the same level as those of the normal bile
[7]
  phospholipid content of bile: approximately at the same level as those of the normal bile
[1]; 100 mg/kg
  cholagogic effect (amount of bile flowing out): sustained great cholagogic effect over the entire observation period of 5 hours
[8]
  empirically known pharmacological activities: analgesic, anti-inflammatory, sedative and anti-palpitation effects and central depressant activity

## CC1(C)[C@H]2CC[C@]1(C)[C@H](O)C2 [(-)-borneol]
[1]; 100 mg/kg
  cholagogic effect (amount of bile flowing out): also had a cholagogic effect

## CC(=O)OC1CC2CCC1(C)C2(C)C (centres unmarked) [bornyl acetate]
[1]; 100 mg/kg
  cholagogic effect (amount of bile flowing out): also had a cholagogic effect

## CC1(C)C2CCC1(C)C(OC1O[C@H](CO)[C@@H](O)[C@H](O)[C@H]1O)C2 (some centres unmarked) [bornyl glucoside]
[1]; 200 mg/kg (bornyl glucoside)
  cholagogic effect (amount of bile flowing out): also had a cholagogic effect

## CC(=O)O[C@@H]1C[C@H]2CC[C@]1(C)C2(C)C [isobornyl acetate]
[1]; 100 mg/kg
  cholagogic effect (amount of bile flowing out): also had a cholagogic effect

## C[C@H](CCC(=O)O)[C@H]1CC[C@H]2[C@@H]3C(=O)C[C@@H]4CC(=O)CC[C@]4(C)[C@H]3CC(=O)[C@]12C [sodium dehydrocholate, reference compound]
[2]
  bile acid contents of bile: slight transient tendency to produce increased amounts of bile acids including deoxycholic acid only 30 minutes after the administration
[5]
  LD50 at 168 h: 2500 mg/kg
[6]
  cholesterol content of bile: tendency for the phospholipid and cholesterol contents of bile to increase
[7]
  phospholipid content of bile: tendency for the phospholipid and cholesterol contents of bile to increase
[1]; 100 mg/kg
  cholagogic effect (amount of bile flowing out): transient great cholagogic effect 30 minutes after the administration

Source: patent US4931475A, “Cholagogue and/or gallstone solubilizer” (Hiya Pharmaceutical Co., Ltd., priority 1985, dated 1990)
